# From patent publication US10123993B2, “Cyclic ureas as inhibitors of rock” (BRISTOL-MYERS SQUIBB COMPANY, priority 2015, dated 2018)
# Biological target: ROCK2 (Homo sapiens, UniProt O75116)
# Assay: ROCK2 kinase inhibition assay (Caliper LABCHIP, FITC peptide substrate)
# Assay type: biochemical
# Settings: 5 μM ATP, 1.5 μM peptide substrate; value ranges
# Procedure, shortened: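 Dose-response curves gave IC50 from inhibition of peptide phosphorylation, measured by LabChip separation after EDTA stop. Reactions used 1.5 μM FITC-labelled peptide, 5 μM ATP, 20 mM HEPES pH 7.5 with MgCl2, Brij-35, DTT, and under 2% DMSO.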
# Chain of ROCK2 (O75116 whole entry, species assumed): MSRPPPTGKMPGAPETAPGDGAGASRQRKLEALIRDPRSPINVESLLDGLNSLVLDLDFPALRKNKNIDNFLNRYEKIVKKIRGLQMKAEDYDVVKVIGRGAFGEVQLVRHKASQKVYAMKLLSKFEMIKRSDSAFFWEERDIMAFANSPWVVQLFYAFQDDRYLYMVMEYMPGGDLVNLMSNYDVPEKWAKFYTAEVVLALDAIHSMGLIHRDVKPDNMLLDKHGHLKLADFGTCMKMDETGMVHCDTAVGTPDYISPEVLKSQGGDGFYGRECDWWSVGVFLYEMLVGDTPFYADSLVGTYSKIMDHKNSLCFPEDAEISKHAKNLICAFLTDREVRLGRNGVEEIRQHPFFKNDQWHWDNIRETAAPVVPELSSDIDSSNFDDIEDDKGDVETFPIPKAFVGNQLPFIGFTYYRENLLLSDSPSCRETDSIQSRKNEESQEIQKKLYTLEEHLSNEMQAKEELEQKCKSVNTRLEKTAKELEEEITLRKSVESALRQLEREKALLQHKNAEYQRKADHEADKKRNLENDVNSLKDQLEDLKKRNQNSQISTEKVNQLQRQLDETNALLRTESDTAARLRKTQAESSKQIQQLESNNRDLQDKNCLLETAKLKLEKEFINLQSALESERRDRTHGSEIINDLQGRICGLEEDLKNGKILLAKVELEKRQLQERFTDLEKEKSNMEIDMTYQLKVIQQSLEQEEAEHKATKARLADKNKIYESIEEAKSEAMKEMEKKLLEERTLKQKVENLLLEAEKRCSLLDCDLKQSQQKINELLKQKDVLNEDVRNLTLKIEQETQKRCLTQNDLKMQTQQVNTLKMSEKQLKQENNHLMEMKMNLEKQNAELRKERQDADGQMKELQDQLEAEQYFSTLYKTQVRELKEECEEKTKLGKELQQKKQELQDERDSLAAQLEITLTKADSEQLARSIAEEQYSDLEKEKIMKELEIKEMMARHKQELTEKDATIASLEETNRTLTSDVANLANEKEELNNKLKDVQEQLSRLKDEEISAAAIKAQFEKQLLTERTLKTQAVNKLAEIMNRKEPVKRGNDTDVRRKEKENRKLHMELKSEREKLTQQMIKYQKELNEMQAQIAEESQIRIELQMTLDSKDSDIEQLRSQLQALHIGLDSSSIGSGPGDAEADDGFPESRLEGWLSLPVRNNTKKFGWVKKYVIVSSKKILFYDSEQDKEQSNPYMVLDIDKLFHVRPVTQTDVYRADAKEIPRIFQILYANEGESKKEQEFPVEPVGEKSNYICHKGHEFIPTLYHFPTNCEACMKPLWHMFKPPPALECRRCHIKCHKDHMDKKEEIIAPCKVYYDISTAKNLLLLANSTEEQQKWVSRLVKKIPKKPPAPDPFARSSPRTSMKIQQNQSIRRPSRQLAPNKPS
row,SMILES,IC50 [nM]
1,"COc1cc(N2C(=O)CN(CCc3ccccc3)C2=O)ccc1-c1cn[nH]c1 [Example 97, 3-(3-methoxy-4-(1H-pyrazol-4-yl)phenyl)-1-phenethylimidazolidine-2,4-dione]",200 to 2000
2,"COc1nc(N2CCN(C(C)c3cccc(OCC4CC4)c3)C2=O)ccc1-c1cn[nH]c1 (single isomer, unassigned) [Example 213, 1-(1-(3-(cyclopropylmethoxy)phenyl)ethyl)-3-(6-methoxy-5-(1H-pyrazol-4-yl)pyridin-2-yl)imidazolidin-2-one]",200 to 2000
3,"COc1cc(CN2CCN(c3cc(F)c(-c4cn[nH]c4)cc3F)C2=O)ccc1F [Example 449, 1-(2,5-difluoro-4-(1H-pyrazol-4-yl)phenyl)-3-(4-fluoro-3-methobenzyl)imidazolidin-2-one]",20.1 to 200
4,"COc1cccc(C(C(=O)NCC(C)(C)O)N2CCN(c3ccc(-c4cn[nH]c4)cc3)C2=O)c1 (single isomer, unassigned) [Example 303, 2-(3-(4-(1H-pyrazol-4-yl)phenyl)-2-oxoimidazolidin-1-yl)-N-(2-hydroxy-2-methylpropyl)-2-(3-methoxyphenyl)acetamide]",20.1 to 200
5,"COc1cc(N2CC(=O)N(CCc3ccccc3)C2=O)ccc1-c1cn[nH]c1 [Example 103, 1-(3-methoxy-4-(1H-pyrazol-4-yl)phenyl)-3-phenethylimidazolidine-2,4-dione]",20.1 to 200
6,"CCc1cc(N2CCN(Cc3cccc(OCC4CC4)c3)C2=O)ccc1-c1cn[nH]c1 [Example 285, 1-(3-(cyclopropylmethoxy)benzyl)-3-(3-ethyl-4-(1H-pyrazol-4-yl)phenyl)imidazolidin-2-one]",200 to 2000
7,"COc1cccc(CN2CCN(c3ccc(-c4cn[nH]c4)c(F)c3)C2=O)c1F [Example 433, 1-(2-fluoro-3-methoxybenzyl)-3-(3-fluoro-4-(1H-pyrazol-4-yl)phenyl)imidazolidin-2-one]",20.1 to 200
8,"Cc1nc(N2CCN(Cc3cccc(OCC4CC4)c3)C2=O)ccc1-c1cn[nH]c1 [Example 186, 1-(3-(cyclo-propyl-methoxy)-benzyl)-3-(6-methyl-5-(1H-pyrazol-4-yl)pyridin-2-yl)-imidazolidin-2-one]",20.1 to 200
9,"COc1cccc(CN2CCN(c3ccc(-c4cn[nH]c4)cn3)C2=O)c1 [Example 446, 1-(5-(1H-pyrazol-4-yl)pyridin-2-yl)-3-(3-methoxybenzyl)imidazolidin-2-one]",2.1 to 20
10,"CCc1cc(N2CCN(Cc3ccccc3)C2=O)ccc1-c1cn[nH]c1 [Example 26, 1-Benzyl-3-(3-ethyl-4-(1H-pyrazol-4-yl)phenyl)imidazolidin-2-one]",20.1 to 200
11,"COc1cccc(CN2CCN(c3ccc(-c4ccnc(F)c4)cc3)C2=O)c1 [Example 54, 1-(4-(2-fluoropyridin-4-yl)phenyl)-3-(3-methoxybenzyl)imidazolidin-2-one]",20.1 to 200
12,"CCc1cc(N2CCN(Cc3cccc(OC)c3)C2=O)ncc1-c1cn[nH]c1 [Example 190, 1-(4-ethyl-5-(1H-pyrazol-4-yl)pyridin-2-yl)-3-(3-methoxy-benzyl) imidazolidin-2-one]",200 to 2000
13,"COc1cccc(CN2C(=O)N(c3ccc(-c4cn[nH]c4)cc3)CC2CO)c1 (single isomer, unassigned; (-)) [Example 43, (−)-1-(4-(1H-Pyrazol-4-yl)phenyl)-4-(hydroxymethyl)-3-(3-methoxybenzyl)imidazolidin-2-one]",< 2
14,"COc1cccc(CN2CC(CO)N(c3ccc(-c4cn[nH]c4)cc3)C2=O)c1 (single isomer, unassigned) [Example 126, 3-(4-(1H-Pyrazol-4-yl)phenyl)-4-(hydroxymethyl)-1-(3-methoxybenzyl)imidazolidin-2-one]",20.1 to 200
15,"COc1cc(Cn2ccn(-c3ccc(-c4cn[nH]c4)c(OC)n3)c2=O)ccc1F [Example 477, 1-(4-fluoro-3-methoxybenzyl)-3-(6-methoxy-5-(1H-pyrazol-4-yl)pyridin-2-yl)-1H-imidazol-2(3H)-one]",< 2
16,"O=C(O)C1CN(Cc2cccc(F)c2)C(=O)N1c1ccc(-c2cn[nH]c2)cc1 (stereo not shown) [Example 33, 3-(4-(1H-Pyrazol-4-yl)phenyl)-1-(3-fluorobenzyl)-2-oxoimidazolidine-4-carboxylic Acid]",200 to 2000
17,"COc1cccc(CN2CCN(c3ccc(-c4cn[nH]c4)cc3OC)C2=O)c1 [Example 10, 1-(2-Methoxy-4-(1H-pyrazol-4-yl)phenyl)-3-(3-methoxybenzyl)imidazolidin-2-one]",2.1 to 20
18,"O=C1CN(c2ccc(-c3cn[nH]c3)cc2)C(=O)N1Cc1c(F)cccc1F [Example 108, 1-(4-(1H-pyrazol-4-yl)phenyl)-3-(2,6-difluorobenzyl) imidazolidine-2,4-dione]",200 to 2000
19,"CCc1nc(N2CCN(C(C)c3ccc(F)c(OC)c3)C2=O)ccc1-c1cn[nH]c1 (single isomer, unassigned) [Example 270, 1-(6-ethyl-5-(1H-pyrazol-4-yl)pyridin-2-yl)-3-(1-(4-fluoro-3-methoxyphenyl)ethyl)imidazolidin-2-one]",2.1 to 20
20,"COc1cc(F)cc(CN2CCN(c3ccc(-c4cn[nH]c4)c(F)c3)C2=O)c1 [Example 425, 1-(3-fluoro-4-(1H-pyrazol-4-yl)phenyl)-3-(3-fluoro-5-methoxybenzyl)imidazolidin-2-one]",< 2
21,"COc1cccc(CN2CCN(c3cc(OC)c(-c4cn[nH]c4)cn3)C2=O)c1 [Example 423, 1-(4-Methoxy-5-(1H-pyrazol-4-yl)pyridin-2-yl)-3-(3-methoxybenzyl)imidazolidin-2-one]",2.1 to 20
22,"CNC(=O)C(c1ccccc1)N1CCN(c2ccc(-c3cn[nH]c3)cc2)C1=O (single isomer, unassigned) [Example 299, 2-(3-(4-(1H-pyrazol-4-yl)phenyl)-2-oxoimidazolidin-1-yl)-N-methyl-2-phenylacetamide]",20.1 to 200
23,"CCOC(=O)C1CN(Cc2cccc(OC)c2)C(=O)N1c1ccc(-c2cn[nH]c2)cc1 (stereo not shown) [Example 36, Ethyl 3-(4-(1H-pyrazol-4-yl)phenyl)-1-(3-methoxybenzyl)-2-oxoimidazolidine-4-carboxylate]",2.1 to 20
24,"COc1cccc(C(CO)N2CCN(c3ccc(-c4cn[nH]c4)c(C)n3)C2=O)c1 (single isomer, unassigned) [Example 160, 1-(2-hydroxy-1-(3-methoxy-phenyl)ethyl)-3-(6-methyl-5-(1H-pyrazol-4-yl)pyridin-2-yl)imidazolidin-2-one]",20.1 to 200
25,"COc1nc(N2CCN(Cc3cc(F)cc(F)c3)C2=O)ccc1-c1cn[nH]c1 [Example 247, 1-(3,5-difluorobenzyl)-3-(6-methoxy-5-(1H-pyrazol-4-yl)pyridin-2-yl)imidazolidin-2-one]",< 2
26,"COc1cc(CN2CCN(c3ccc(-c4cn[nH]c4)nc3)C2=O)ccc1F [Example 440, 1-(6-(1H-pyrazol-4-yl)pyridin-3-yl)-3-(4-fluoro-3-methoxybenzyl)imidazolidin-2-one]",20.1 to 200
27,"COc1cccc(CN2C(=O)N(c3ccc(-c4cn[nH]c4)cc3)CC2(C)C)c1 [Example 137, 1-(4-(1H-Pyrazol-4-yl)phenyl)-3-(3-methoxybenzyl)-4,4-dimethylimidazolidin-2-one]",< 2
28,"COc1ccc(F)c(CN2CCN(c3ccc(-c4cn[nH]c4)cc3)C2=O)c1 [Example 120, 1-(4-(1H-pyrazol-4-yl)phenyl)-3-(2-fluoro-5-methoxybenzyl)imidazolidin-2-one]",20.1 to 200
